The text below walks through data of patent publication US20170202218A1, “Materials for Disinfection Produced by Non-Thermal Plasma” (DREXEL UNIVERSITY, priority 2010, published 2017).

One assay has as its system E. coli. To be noted: dispersed for 15 sec, no corona discharge applied.
Another assay concerns E coli. The conditions noted are these: in solution, after only 30 seconds; cited from earlier work.

From the text for E. coli: An agar place of bacterial (containing colonies of 10^5 E. coli) was placed on top of a grounded metal plate.

Take `CCO` [alcohol, ethanol]: the “disinfection of E. coli on agar plate” value in the assay with E. coli is on record as “some spotty effects”. As to `[H]/N=C(\N/C(=N/[H])NCCCCCCNC(=N)NC(=N)Nc1ccc(Cl)cc1)Nc1ccc(Cl)cc1` [chlorhexidine], the “log reduction in E coli” value with E coli is on record as 3.5 log.
